# Source: patent publication EP1874311B1, “A METHOD FOR PREVENTING, DELAYING OR REVERTING ABNORMAL AMYLOID DEPOSITION” (Research & Innovation S.p.A., priority 2005, dated 2006)
# Read-outs that look alike come from different tables or passages of the source. Marks after values point to notes of the source that are not given here.
# Tests used:
# [1] = system: H4/APP cells; assay: Secretion of total beta-amyloid into culture medium of H4/APP cells (ELISA); type: cell-based, Human; settings: for activity at 10 µM / activity at 30 µM: read-out: beta-amyloid concentration in culture medium; for beta-amyloid concentration in culture medium: h4/app cells, 120 min
# Method: Human neuroglioma (H4) cells, stably transfected with the gene codifying for the human protein APP695 having mutations related to Alzheimer disease, have been used.
# Cells were grown in OPTI-MEM containing 10% FBS (foetal bovine serum), hygromycin (0.2 mg/ml) and blasticidine (0.002 mg/ml).
# The Aβ peptide in cells is produced by the sequential processing of beta- and gamma-secretases proteases and is then secreted in the culture medium.
# Peptide concentration in the extracellular medium was measured using a specific ELISA methodology.
# Confluent H4/APP cells where incubated for 2 h with the vehicle (0.1 % DMSO) or with nicardipine at different concentrations (3µM, 10µM, 30µM), beta-amyloid concentration in culture medium is expressed as % control
# [2] = system: TG2576 mice; assay: Plasma amyloidogenic Aβ peptides in TG2576 mice after i.p. administration (ELISA); type: in vivo; settings: 3 hours after 10 mg/kg i.p.; for Aβ1-42 (%) / Total Aβ (%): before treatment = 100
# Method: The selected dihydropyridine, nicardipine (see table 2) as well as nimodipine were administered, in TG2576 animals, at dose of 10 mg/Kg i.p. Animals were bleed before treatment for assessment of basal circulating Aβ peptides as well as 3 hours post-treatment. Determination of blood amyloidogenic Aβ peptide concentration was performed using ELISA technique.
# Table 2 Levels of the amyloidogenic peptides in plasma of TG2576 mice before and 3 hours following administration of the exemplified dihydropyridines
# [3] = Homo sapiens, 10µM, 2 h incubation, confluent H4/APP cells, vehicle = 100
# [4] = Homo sapiens, 30µM, 2 h incubation, confluent H4/APP cells, vehicle = 100
SMILES,"activity at 10 µM [1, 3] [%]","activity at 30 µM [1, 4] [%]",Aβ1-42 (%) [2] [%],Total Aβ (%) [2] [%],other results
"COC(=O)C1=C(C)NC(C)=C(C(=O)OCCCN2CCC(c3ccccc3)(c3ccccc3)CC2)C1c1cccc([N+](=O)[O-])c1 (single isomer, unassigned; (+)) [(+)Niguldipine, (+)niguldipine]",,,,,"activity at 10 µM ([1]; Homo sapiens, 2 h): 71%; activity at 30 µM ([1]; Homo sapiens, 2 h): 43%; inhibition at 30 µM ([1]; Homo sapiens, read-out: inhibition of the extracellular amount of Aβ peptides): 57%"
"COC(=O)C1=C(C)NC(C)=C(C(=O)OCCCN2CCC(c3ccccc3)(c3ccccc3)CC2)C1c1cccc([N+](=O)[O-])c1 (single isomer, unassigned; (-)) [(-)Niguldipine, (-)niguldipine]",,,,,inhibition of the extracellular amount of Aβ peptides ([1]; 30 µM): 53%; beta-amyloid concentration in culture medium ([1]; 10 µM): 68* % control; beta-amyloid concentration in culture medium ([1]; 30 µM): 47* % control
COC(=O)C1=C(C)NC(C)=C([N+](=O)[O-])C1c1ccccc1C(F)(F)F (stereo not shown) [BayK 8644],98,96,,,beta-amyloid content in culture media from H4/APP cells ([1]; result in words): did not affect
"COC(=O)C1=C(C)NC(C)=C(C(=O)OCCN(C)Cc2ccccc2)C1c1cccc([N+](=O)[O-])c1 (stereo not shown) [Nicardipine, nicardipine]",62,58,176,170,
"COCCOC(=O)C1=C(C)NC(C)=C(C(=O)OC(C)C)C1c1cccc([N+](=O)[O-])c1 (stereo not shown) [Nimodipine, nimodipine]",,,156,87,"Total Aβ (pM) ([2]; n=7): 759,1±27,0 pM"
